The NIST ThermoML archive (doi:10.1016/j.jct.2016.03.026)

Experiment: xn = mol fraction of the nth substance listed
Conditions: Fluid (supercritical or subcritical phases), x1 = 0.97; for mass density: Vibrating tube method; for speed of sound: 293.13 K, Frequency=5 MHz, Pulse-echo method

O=C=O [carbon dioxide] + CO
Conditions | mass density [kg/m3]
283.15 K, 16550 kPa | 963.02
283.15 K, 16575 kPa | 963.18
283.15 K, 16600 kPa | 963.26
283.15 K, 16625 kPa | 963.43
283.15 K, 16650 kPa | 963.51
283.15 K, 16675 kPa | 963.66
283.15 K, 16700 kPa | 963.77
283.15 K, 16725 kPa | 963.92
283.15 K, 16750 kPa | 964
283.15 K, 16775 kPa | 964.16
283.15 K, 16800 kPa | 964.28
283.15 K, 16825 kPa | 964.4
283.15 K, 16850 kPa | 964.49
283.15 K, 16875 kPa | 964.65
283.15 K, 16900 kPa | 964.79
283.15 K, 16925 kPa | 964.88
283.15 K, 16950 kPa | 964.99
283.15 K, 16975 kPa | 965.14
283.15 K, 17000 kPa | 965.28
283.15 K, 17025 kPa | 965.37
283.15 K, 17050 kPa | 965.46
283.15 K, 17075 kPa | 965.62
283.15 K, 17100 kPa | 965.75
283.15 K, 17125 kPa | 965.87
283.15 K, 17150 kPa | 965.97
283.15 K, 17175 kPa | 966.11
283.15 K, 17200 kPa | 966.25
283.15 K, 17225 kPa | 966.36
283.15 K, 17250 kPa | 966.51
283.15 K, 17275 kPa | 966.6
283.15 K, 17300 kPa | 966.7
283.15 K, 17325 kPa | 966.85
283.15 K, 17350 kPa | 966.97
283.15 K, 17375 kPa | 967.09
283.15 K, 17400 kPa | 967.17
283.15 K, 17425 kPa | 967.31
283.15 K, 17450 kPa | 967.41
283.15 K, 17475 kPa | 967.57
283.15 K, 17500 kPa | 967.66
283.15 K, 17525 kPa | 967.82
283.15 K, 17550 kPa | 967.9
283.15 K, 17575 kPa | 968.06
283.15 K, 17600 kPa | 968.15
283.15 K, 17625 kPa | 968.24
283.15 K, 17650 kPa | 968.4
283.15 K, 17675 kPa | 968.48
283.15 K, 17700 kPa | 968.64
283.15 K, 17725 kPa | 968.78
283.15 K, 17750 kPa | 968.88
283.15 K, 17775 kPa | 968.98
283.15 K, 17800 kPa | 969.12
283.15 K, 17825 kPa | 969.25
283.15 K, 17850 kPa | 969.37
283.15 K, 17875 kPa | 969.46
283.15 K, 17900 kPa | 969.6
283.15 K, 17925 kPa | 969.69
283.15 K, 17950 kPa | 969.8
283.15 K, 17975 kPa | 969.94
283.15 K, 18000 kPa | 970.08
283.15 K, 18025 kPa | 970.18
283.15 K, 18050 kPa | 970.31
283.15 K, 18075 kPa | 970.43
283.15 K, 18100 kPa | 970.52
283.15 K, 18125 kPa | 970.66
283.15 K, 18150 kPa | 970.8
283.15 K, 18175 kPa | 970.91
283.15 K, 18200 kPa | 970.99
283.15 K, 18225 kPa | 971.16
283.15 K, 18250 kPa | 971.25
283.15 K, 18275 kPa | 971.39
283.15 K, 18300 kPa | 971.48
283.15 K, 18325 kPa | 971.57
283.15 K, 18350 kPa | 971.73
283.15 K, 18375 kPa | 971.85
283.15 K, 18400 kPa | 971.98
283.15 K, 18425 kPa | 972.05
283.15 K, 18450 kPa | 972.17
283.15 K, 18475 kPa | 972.3
283.15 K, 18500 kPa | 972.43
283.15 K, 18525 kPa | 972.54
283.15 K, 18550 kPa | 972.62
283.15 K, 18575 kPa | 972.76
283.15 K, 18600 kPa | 972.9
283.15 K, 18625 kPa | 973.03
283.15 K, 18650 kPa | 973.11
283.15 K, 18675 kPa | 973.21
283.15 K, 18700 kPa | 973.35
283.15 K, 18725 kPa | 973.46
283.15 K, 18750 kPa | 973.6
283.15 K, 18775 kPa | 973.72
283.15 K, 18800 kPa | 973.84
283.15 K, 18825 kPa | 973.96
283.15 K, 18850 kPa | 974.07
283.15 K, 18875 kPa | 974.17
283.15 K, 18900 kPa | 974.28
283.15 K, 18925 kPa | 974.41
283.15 K, 18950 kPa | 974.55
283.15 K, 18975 kPa | 974.63
283.15 K, 19000 kPa | 974.74
283.15 K, 19025 kPa | 974.9
283.15 K, 19050 kPa | 974.98
283.15 K, 19075 kPa | 975.08
283.15 K, 19100 kPa | 975.18
283.15 K, 19125 kPa | 975.31
283.15 K, 19150 kPa | 975.44
283.15 K, 19175 kPa | 975.52
283.15 K, 19200 kPa | 975.66
283.15 K, 19225 kPa | 975.76
283.15 K, 19250 kPa | 975.85
283.15 K, 19275 kPa | 976.02
283.15 K, 19300 kPa | 976.1
283.15 K, 19325 kPa | 976.18
283.15 K, 19350 kPa | 976.34
283.15 K, 19375 kPa | 976.42
283.15 K, 19400 kPa | 976.53
283.15 K, 19425 kPa | 976.66
283.15 K, 19450 kPa | 976.74
283.15 K, 19475 kPa | 976.85
283.15 K, 19500 kPa | 976.99
283.15 K, 19525 kPa | 977.1
283.15 K, 19550 kPa | 977.22
283.15 K, 19575 kPa | 977.29
283.15 K, 19600 kPa | 977.43
283.15 K, 19625 kPa | 977.51
283.15 K, 19650 kPa | 977.66
283.15 K, 19675 kPa | 977.74
283.15 K, 19700 kPa | 977.89
283.15 K, 19725 kPa | 977.97
283.15 K, 19750 kPa | 978.07
283.15 K, 19775 kPa | 978.19
283.15 K, 19800 kPa | 978.31
283.15 K, 19825 kPa | 978.42
283.15 K, 19850 kPa | 978.49
283.15 K, 19875 kPa | 978.64
283.15 K, 19900 kPa | 978.72
283.15 K, 19925 kPa | 978.84
283.15 K, 19950 kPa | 978.96
283.15 K, 19975 kPa | 979.04
283.15 K, 20000 kPa | 979.19
293.15 K, 6500 kPa | 813.14
293.15 K, 6525 kPa | 813.39
293.15 K, 6550 kPa | 813.83
293.15 K, 6575 kPa | 814.36
293.15 K, 6600 kPa | 814.85
293.15 K, 6625 kPa | 815.37
293.15 K, 6650 kPa | 815.85
293.15 K, 6675 kPa | 816.32
293.15 K, 6700 kPa | 816.75
293.15 K, 6725 kPa | 817.24
293.15 K, 6750 kPa | 817.7
293.15 K, 6775 kPa | 818.19
293.15 K, 6800 kPa | 818.69
293.15 K, 6825 kPa | 819.09
293.15 K, 6850 kPa | 819.56
293.15 K, 6875 kPa | 820.02
293.15 K, 6900 kPa | 820.51
293.15 K, 6925 kPa | 821
293.15 K, 6950 kPa | 821.45
293.15 K, 6975 kPa | 821.88
293.15 K, 7000 kPa | 822.38
293.15 K, 7025 kPa | 822.78
293.15 K, 7050 kPa | 823.25
293.15 K, 7075 kPa | 823.68
293.15 K, 7100 kPa | 824.12
293.15 K, 7125 kPa | 824.56
293.15 K, 7150 kPa | 824.97
293.15 K, 7175 kPa | 825.4
293.15 K, 7200 kPa | 825.75
293.15 K, 7225 kPa | 826.24
293.15 K, 7250 kPa | 826.63
293.15 K, 7275 kPa | 827.05
293.15 K, 7300 kPa | 827.52
293.15 K, 7325 kPa | 827.94
293.15 K, 7350 kPa | 828.35
293.15 K, 7375 kPa | 828.75
293.15 K, 7400 kPa | 829.18
293.15 K, 7425 kPa | 829.57
293.15 K, 7450 kPa | 829.96
293.15 K, 7475 kPa | 830.36
293.15 K, 7500 kPa | 830.75
293.15 K, 7525 kPa | 831.18
293.15 K, 7550 kPa | 831.58
293.15 K, 7575 kPa | 832.01
293.15 K, 7600 kPa | 832.39
293.15 K, 7625 kPa | 832.79
293.15 K, 7650 kPa | 833.16
293.15 K, 7675 kPa | 833.55
293.15 K, 7700 kPa | 833.94
293.15 K, 7725 kPa | 834.35
293.15 K, 7750 kPa | 834.76
293.15 K, 7775 kPa | 835.15
293.15 K, 7800 kPa | 835.53
293.15 K, 7825 kPa | 835.97
293.15 K, 7850 kPa | 836.36
293.15 K, 7875 kPa | 836.75
293.15 K, 7900 kPa | 837.14
293.15 K, 7925 kPa | 837.51
293.15 K, 7950 kPa | 837.87
293.15 K, 7975 kPa | 838.26
293.15 K, 8000 kPa | 838.63
293.15 K, 8025 kPa | 838.99
293.15 K, 8050 kPa | 839.37
293.15 K, 8075 kPa | 839.71
293.15 K, 8100 kPa | 840.15
293.15 K, 8125 kPa | 840.47
293.15 K, 8150 kPa | 840.87
293.15 K, 8175 kPa | 841.23
293.15 K, 8200 kPa | 841.62
293.15 K, 8225 kPa | 841.97
293.15 K, 8250 kPa | 842.39
293.15 K, 8275 kPa | 842.74
293.15 K, 8300 kPa | 843.12
293.15 K, 8325 kPa | 843.46
293.15 K, 8350 kPa | 843.86
293.15 K, 8375 kPa | 844.16
293.15 K, 8400 kPa | 844.56
293.15 K, 8425 kPa | 844.93
293.15 K, 8450 kPa | 845.3
293.15 K, 8475 kPa | 845.64
293.15 K, 8500 kPa | 845.98
293.15 K, 8525 kPa | 846.37
293.15 K, 8550 kPa | 846.75
293.15 K, 8575 kPa | 847.1

Conditions | speed of sound [m/s]
20010 kPa | 624.7
24930 kPa | 674.5
29990 kPa | 718.7
34940 kPa | 755.3
39990 kPa | 791.4
44940 kPa | 822.9
49970 kPa | 852.5
54900 kPa | 879.8
59940 kPa | 906
64950 kPa | 930.5
69950 kPa | 953.8
74980 kPa | 976
80020 kPa | 997.6
90010 kPa | 1037.3
100010 kPa | 1074.3
109950 kPa | 1108.7
120040 kPa | 1141.7
140050 kPa | 1201.9
160040 kPa | 1256.5
178780 kPa | 1303.9
